The NIST ThermoML archive (doi:10.1021/acs.jced.6b00230)
Numbers after ± are expanded uncertainties.

Assays:
[1] = Crystal
[2] = Molar enthalpy of transition or fusion; conditions: Crystal; DSC

In the case of `O=C1NC(=O)c2cc([N+](=O)[O-])ccc21` [4-nitrophthalimide], the mass density ([1]; 298.15 K, 101.33 kPa, Buoyancy - hydrostatic balance) is reported as 1594.7 ± 2.1 kg/m3, the Normal melting temperature ([1]; DTA) is reported as 201.56 ± 1.1 °C and the “Molar enthalpy of transition or fusion” value [2] is reported as 8.27 ± 0.263 kcal/mol.
